{"source": "patent US11298312B2", "about": "“Composition comprising niacinamide and picolinamide” (Conopco, Inc., priority 2015, dated 2022)"}
{"tested_on": "psoriasin secretion", "experiment": "In-vitro generation of AMP (psoriasin) in differentiated NHEK keratinocytes, psoriasin ELISA of culture supernatant", "format": "cell-based, Human", "details": "NHEK cells, KGM + 2 mM calcium chloride, 72 h treatment; fold change over control (Example A); concentrations per Table 3", "method": "In-Vitro Experiment with Combination of Niacinamide and Picolinamide as Per the Present Invention for Generation of AMP (Psoriasin): The experiment was done using the following protocol: Step 1: Human neonatal primary skin keratinocyte (NHEK) cells was obtained from Lonza®. The experiment was done with the above-mentioned cells with passage between 3 and 4. Then, the cells were seeded (35,000 cells/well) in 24 well plate with keratinocyte growth media (KGM) obtained from Invitrogen®. The plate was then incubated at 37±2° C. in a CO2 incubator for 48 hours. Step 2: After 48 hours of incubation, cell differentiation was induced by replacing media with fresh KGM supplemented with 2 mM calcium chloride solution. This was then followed by incubation at 37±2° C. in a CO2 incubator for 48 hours. Step 3: After that, the cells were treated with different concentration of Niacinamide and picolinamide and their combination at various concentration as per following Table 3 with keratinocyte growth media supplemented with 2 mM calcium chloride solution: Step 4: After the above treatment, cells were again incubated at 37±2° C. in a CO2 incubator for 72 hours Step 5: After 72 h of incubation, cell culture supernatant from each well was collected in a sterile tube. The samples were then stored at −80° C. until used for testing psoriasin secretion by standard ELISA technique using psoriasin ELISA kit obtained from Circulx® (No: CY—8073). In the current experiment, psoriasin was used as a marker for AMP. Step 6: The ELISA method was performed by using 100 μL of cell culture supernatant from each sample. The data is expressed in terms of fold change over control (without Niacinamide and/or picolinamide, Example A)."}
{"smiles": "NC(=O)c1ccccn1", "note": "[Example D, picolinamide]", "Fold change in psoriasin secretion": 3.5}
{"smiles": "NC(=O)c1cccnc1", "note": "[Example B, Niacinamide]", "Fold change in psoriasin secretion": 1.8}
{"smiles": "NC(=O)c1cccnc1", "note": "[Example C, Niacinamide]", "Fold change in psoriasin secretion": 3.3}
{"smiles": "NC(=O)c1ccccn1", "note": "[Example E, picolinamide]", "Fold change in psoriasin secretion": 3.8}
